Assay results taken from US20240391965A1, “STAPLED ANTIMICROBIAL PEPTIDES (STAMPS) AND USES THEREOF” (Lytica Therapeutics, Inc., priority 2021, published 2024).
Converted amounts (≈) assume the structure as drawn. Starred links: 1 amine or outer side, 2 acyl side, 3 side chain; linkers in the order of their positions; H or OH if unused. Positions of bridges follow the written chain, without caps; N, C: chain ends. Residues, ends and D or L forms follow the SMILES beside them. mXylylene = c1cc(C[*:1])cc(C[*:2])c1; pXylylene = c1cc(C[*:2])ccc1C[*:1]; X1 = C(=CC[*:2])C[*:1]

Legend:
[1] = system: Acinetobacter baumannii (A. baumannii); assay type: cell-based; conditions: microbroth dilution, 20-24 hours at 37° C.
Procedure, shortened: (§1)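 Broth microdilution adapted from CLSI in Mueller-Hinton broth or cation-adjusted MHB II; overnight cultures at 37 °C were regrown 3-4 h, then added to serially diluted peptide at a final 5×10^5 CFU/ml. After 20-24 h at 37 °C, MIC was taken as the lowest peptide concentration with no visible growth.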

[2] = system: Escherichia coli (E. coli); assay type: cell-based; conditions: microbroth dilution, 20-24 hours at 37° C.
Procedure, shortened: as §1

[3] = system: Klebsiella pneumoniae (K. pneumoniae); assay type: cell-based; conditions: microbroth dilution, 20-24 hours at 37° C.
Procedure, shortened: as §1

[4] = system: Pseudomonas aeruginosa (P. aeruginosa); assay type: cell-based; conditions: microbroth dilution, 20-24 hours at 37° C.
Procedure, shortened: as §1

[5] = system: Staphylococcus aureus (S. aureus); assay type: cell-based; conditions: microbroth dilution, 20-24 hours at 37° C.
Procedure, shortened: as §1

[6] = 90 minute cytotoxicity assay (LDH release), renal toxicity; assay type: cell-based; conditions: 90 minutes of incubation, LDH release; read-out: Inhibitory Concentration at 50% Cytotoxicity (IC50) Human Renal Proximal Tubule Epithelial Cells (RPTEC)
Procedure, shortened: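 RPTEC plated overnight, given fresh medium, then exposed to serial peptide dilutions or vehicle for 90 min at 37° C. Medium LDH measured by 10 min reagent incubation and absorbance at 490 nm.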

[7] = 48 hours cytotoxicity assay (CellTiter-Glo), liver toxicity; assay type: cell-based, human; conditions: 48 hours of incubation, CellTiter-Glo; read-out: Inhibitory Concentration at 50% Cytotoxicity (IC50) Human Liver Cells (HepG2)
Procedure, shortened: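 HepG2 cells in EMEM with 10% FBS, allowed to attach 4 h, then exposed to serially diluted StAMPs or vehicle for 48 h at 37 °C. Viability read by CellTiter-Glo luminescence.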

Compound	Minimum Inhibitory Concentration (MIC) A. baumannii [1] [µg/mL]	Minimum Inhibitory Concentration (MIC) E. coli [2] [µg/mL]	Minimum Inhibitory Concentration (MIC) K. pneumoniae [3] [µg/mL]	Minimum Inhibitory Concentration (MIC) P. aeruginosa [4] [µg/mL]	Minimum Inhibitory Concentration (MIC) S. aureus [5] [µg/mL]	IC50 [6] [µg/mL]	IC50 [7] [µg/mL]
CC[C@H](C)[C@H](NC(=O)CN)C(=O)N[C@H]1CSCC=CCSC[C@@H](C(=O)NCC(=O)N[C@@H](CCCCN)C(=O)N[C@@H](CCCCN)C(=O)N[C@H](C(=O)N[C@@H](CCCCN)C(=O)N[C@@H](CC(N)=O)C(=O)N[C@@H](CC(C)C)C(=O)N[C@@H](CC(C)C)C(=O)N[C@H](C(=O)N[C@@H](CO)C(=O)NCC(=O)N[C@@H](CC(C)C)C(=O)N[C@@H](CCCCN)C(=O)NCC(N)=O)[C@@H](C)CC)[C@@H](C)CC)NC(=O)[C@H](CC(C)C)NC(=O)[C@H](CCCCN)NC(=O)[C@H](CO)NC1=O [compound 1] (H-GICSKLCGKKIKNLLISGLKG-NH2; linker 3-7 via X1)	8	8	64	32	>64	> 200	> 200
CC[C@H](C)[C@H](NC(=O)CN)C(=O)N[C@@H](Cc1ccccc1)C(=O)N[C@@H](CO)C(=O)N[C@@H](CCCCN)C(=O)N[C@@H](CC(C)C)C(=O)N[C@H]1CSCc2cccc(c2)CSC[C@@H](C(=O)N[C@@H](CCCCN)C(=O)N[C@@H](CC(N)=O)C(=O)N[C@@H](CC(C)C)C(=O)N[C@@H](CC(C)C)C(=O)N[C@H](C(=O)N[C@@H](CO)C(=O)NCC(=O)N[C@@H](CC(C)C)C(=O)N[C@@H](CCCCN)C(=O)NCC(N)=O)[C@@H](C)CC)NC(=O)[C@H](CCCCN)NC(=O)[C@H](CCCCN)NC(=O)CNC1=O [compound 2] (H-GIFSKLCGKKCKNLLISGLKG-NH2; linker 7-11 via mXylylene)	4	2	16	8	>64	101 (≈ 43.7 µM)	97 (≈ 42 µM)
CC[C@H](C)[C@H](NC(=O)CN)C(=O)N[C@@H](Cc1ccccc1)C(=O)N[C@@H](CO)C(=O)N[C@@H](CCCCN)C(=O)N[C@@H](CC(C)C)C(=O)N[C@H]1CSCc2ccc(cc2)CSC[C@@H](C(=O)N[C@@H](CCCCN)C(=O)N[C@@H](CC(N)=O)C(=O)N[C@@H](CC(C)C)C(=O)N[C@@H](CC(C)C)C(=O)N[C@H](C(=O)N[C@@H](CO)C(=O)NCC(=O)N[C@@H](CC(C)C)C(=O)N[C@@H](CCCCN)C(=O)NCC(N)=O)[C@@H](C)CC)NC(=O)[C@H](CCCCN)NC(=O)[C@H](CCCCN)NC(=O)CNC1=O [compound 3] (H-GIFSKLCGKKCKNLLISGLKG-NH2; linker 7-11 via pXylylene)	2	2	16	8	>64	79 (≈ 34.2 µM)	86 (≈ 37.2 µM)
CC[C@H](C)[C@H](NC(=O)CN)C(=O)N[C@@H](Cc1ccccc1)C(=O)N[C@@H](CO)C(=O)N[C@@H](CCCCN)C(=O)N[C@@H](CC(C)C)C(=O)N[C@@H](C)C(=O)N[C@H]1CSCc2cccc(c2)CSC[C@@H](C(=O)N[C@@H](CC(N)=O)C(=O)N[C@@H](CC(C)C)C(=O)N[C@@H](CC(C)C)C(=O)N[C@H](C(=O)N[C@@H](CO)C(=O)NCC(=O)N[C@@H](CC(C)C)C(=O)N[C@@H](CCCCN)C(=O)NCC(N)=O)[C@@H](C)CC)NC(=O)[C@H]([C@@H](C)CC)NC(=O)[C@H](CCCCN)NC(=O)[C@H](CCCCN)NC1=O [compound 10] (H-GIFSKLACKKICNLLISGLKG-NH2; linker 8-12 via mXylylene)	4	4	8	16	32	17 (≈ 7.37 µM)	18 (≈ 7.8 µM)
CC[C@H](C)[C@H](NC(=O)CN)C(=O)N[C@@H](Cc1ccccc1)C(=O)N[C@@H](CO)C(=O)N[C@@H](CCCCN)C(=O)N[C@@H](CC(C)C)C(=O)N[C@@H](C)C(=O)N[C@H]1CSCc2ccc(cc2)CSC[C@@H](C(=O)N[C@@H](CC(N)=O)C(=O)N[C@@H](CC(C)C)C(=O)N[C@@H](CC(C)C)C(=O)N[C@H](C(=O)N[C@@H](CO)C(=O)NCC(=O)N[C@@H](CC(C)C)C(=O)N[C@@H](CCCCN)C(=O)NCC(N)=O)[C@@H](C)CC)NC(=O)[C@H]([C@@H](C)CC)NC(=O)[C@H](CCCCN)NC(=O)[C@H](CCCCN)NC1=O [compound 11] (H-GIFSKLACKKICNLLISGLKG-NH2; linker 8-12 via pXylylene)	4	4	8	8	32	16 (≈ 6.93 µM)	23 (≈ 9.97 µM)
CC[C@H](C)[C@H](NC(=O)CN)C(=O)N[C@@H](Cc1ccccc1)C(=O)N[C@@H](CO)C(=O)N[C@@H](CCCCN)C(=O)N[C@@H](CC(C)C)C(=O)N[C@@H](C)C(=O)N[C@H]1CSCC=CCSC[C@@H](C(=O)N[C@@H](CC(N)=O)C(=O)N[C@@H](CC(C)C)C(=O)N[C@@H](CC(C)C)C(=O)N[C@H](C(=O)N[C@@H](CO)C(=O)NCC(=O)N[C@@H](CC(C)C)C(=O)N[C@@H](CCCCN)C(=O)NCC(N)=O)[C@@H](C)CC)NC(=O)[C@H]([C@@H](C)CC)NC(=O)[C@H](CCCCN)NC(=O)[C@H](CCCCN)NC1=O [compound 12] (H-GIFSKLACKKICNLLISGLKG-NH2; linker 8-12 via X1)	4	4	16	16	>64	70 (≈ 31 µM)	50 (≈ 22.1 µM)
CC[C@H](C)[C@H](NC(=O)CN)C(=O)N[C@@H](Cc1ccccc1)C(=O)N[C@@H](CO)C(=O)N[C@@H](CCCCN)C(=O)N[C@@H](CC(C)C)C(=O)N[C@@H](C)C(=O)NCC(=O)N[C@H]1CSCc2ccc(cc2)CSC[C@@H](C(=O)N[C@@H](CC(C)C)C(=O)N[C@@H](CC(C)C)C(=O)N[C@H](C(=O)N[C@@H](CO)C(=O)NCC(=O)N[C@@H](CC(C)C)C(=O)N[C@@H](CCCCN)C(=O)NCC(N)=O)[C@@H](C)CC)NC(=O)[C@H](CCCCN)NC(=O)[C@H]([C@@H](C)CC)NC(=O)[C@H](CCCCN)NC1=O [compound 13] (H-GIFSKLAGCKIKCLLISGLKG-NH2; linker 9-13 via pXylylene)	32	32	64	64	>64	> 200	> 200
CC[C@H](C)[C@H](NC(=O)CN)C(=O)N[C@@H](Cc1ccccc1)C(=O)N[C@@H](CO)C(=O)N[C@@H](CCCCN)C(=O)N[C@@H](CC(C)C)C(=O)N[C@@H](C)C(=O)NCC(=O)N[C@@H](CCCCN)C(=O)N[C@H]1CSCc2cccc(c2)CSC[C@@H](C(=O)N[C@@H](CC(C)C)C(=O)N[C@H](C(=O)N[C@@H](CO)C(=O)NCC(=O)N[C@@H](CC(C)C)C(=O)N[C@@H](CCCCN)C(=O)NCC(N)=O)[C@@H](C)CC)NC(=O)[C@H](CC(N)=O)NC(=O)[C@H](CCCCN)NC(=O)[C@H]([C@@H](C)CC)NC1=O [compound 14] (H-GIFSKLAGKCIKNCLISGLKG-NH2; linker 10-14 via mXylylene)	8	4	16	16	32	41 (≈ 18.2 µM)	49 (≈ 21.8 µM)
